Reference: publication PMC12974487, “Inhibition of FicD-mediated AMPylation and deAMPylation by isoprenoid diphosphates” (Proceedings of the National Academy of Sciences of the …, 2026)

Target: T1, FicD^L258D (Homo sapiens, UniProt Q9BVA6, L258D)
T1 construct: soluble ER luminal domain (residues 105 to 458) of wild-type human FicD and three mutants; 6xHis-Sumo (N, cleaved yes); made in house; host or cells: Rosetta(DE3) E. coli
T1 sequence (Q9BVA6 105-458 L258D): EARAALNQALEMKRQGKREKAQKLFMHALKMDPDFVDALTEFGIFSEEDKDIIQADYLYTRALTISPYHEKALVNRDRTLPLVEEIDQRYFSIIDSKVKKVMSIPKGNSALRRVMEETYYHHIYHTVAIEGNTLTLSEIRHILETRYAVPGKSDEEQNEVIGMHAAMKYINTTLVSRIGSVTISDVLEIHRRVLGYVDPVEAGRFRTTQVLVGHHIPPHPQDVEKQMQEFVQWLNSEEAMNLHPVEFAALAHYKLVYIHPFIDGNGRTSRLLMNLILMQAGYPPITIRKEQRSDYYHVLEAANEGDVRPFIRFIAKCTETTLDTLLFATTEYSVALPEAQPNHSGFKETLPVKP
Experiment: MIDAS metabolite screen, FicD^L258D
Type: binding
Conditions: cutoff Q < 0.05 and |Log2 corrected fold change| > 2, metabolites 5 µM

SMILES | MIDAS protein-metabolite interaction (enrichment/depletion)
CC(C)=CCC/C(C)=C/CC/C(C)=C/COP(=O)(O)OP(=O)(O)O [FPP, farnesyl-pyrophosphate] | significantly enriched
CC(C)=CCC/C(C)=C/COP(=O)(O)OP(=O)(O)O [GPP, geranyl-pyrophosphate] | significantly enriched
